{"source": "patent US20250302781A1", "about": "“METHOD FOR PRETREATING RELAPSING CANCER” (priority 2022, published 2025)", "key": {"[1]": {"tested_on": "SU-DHL cell line (SU DHL 8)", "assay": "WST 1 colorimetric cell proliferation assay, SU-DHL cell line", "format": "cell-based, human", "details": "for effect of valproic acid pretreatment on cell proliferation (percent growth of treated cells): 48 h pretreatment 1 mM valproic acid", "procedure": "(§1) In this example the combined effect of valproic acid and three different compounds as well as the single treatment on the growth of two cell lines were measured by WST 1 assay.\n(§2) The cell lines used where: • SU DHL 8: human B cell lymphoma, and • WSU NHL: human B cell lymphoma\nThe WST 1 colorimetric assay comprised providing suspended cells (5000 cells/well) in the wells of a well plate. Tetrazolium salt (WST 1) was added to the cells and thereby colored the fluid in the wells red. Live cells reduce the tetrazolium salt via intermediate electron acceptors and forms a formazan product and the fluid in the cells turn yellow. The extent of color change reflects the proliferation of the cells and is read out as optical absorbance at 420 nm. […] Additionally, 10% DMSO was used as positive control.\n(§3) The cells of each cell line were incubated in a pretreatment step with 1 mM valproic acid for 48 hours followed by a treatment step with the respective compound for 24 or 48 hours, as shown in table 1 below: […]"}, "WSU-NHL cell line": {"tested_on": "WSU-NHL cell line", "assay": "WST 1 colorimetric cell proliferation assay, WSU-NHL cell line", "format": "cell-based, human", "details": "for effect of valproic acid pretreatment on cell proliferation (percent growth of treated cells): 48 h pretreatment 1 mM valproic acid", "procedure": "as §1, §2\nThe WST 1 colorimetric assay comprised providing suspended cells (5000 cells/well) in the wells of a well plate. Tetrazolium salt (WST 1) was added to the cells and thereby colored the fluid in the wells red. Live cells reduce the tetrazolium salt via intermediate electron acceptors and forms a formazan product and the fluid in the cells turn yellow. The extent of color change reflects the proliferation of the cells and is read out as optical absorbance at 420 nm. Both cell lines were determined to be able to tolerate concentrations of up to 1% Dimethyl sulfoxide (DMSO), and this DMSO concentration was used as negative control. Additionally, 10% DMSO was used as positive control.\nas §3"}, "[2]": {"details": "FIG. 2B, 5 μM of compound 48 h after 48 h 1 mM valproic acid, normalized to untreated control cells"}}}
{"smiles": "Cn1c(CCCC(=O)O)nc2cc(N(CCCl)CCCl)ccc21", "note": "[bendamustine, 1H-Benzimidazole-2-butanoic acid, 5-[bis(2-chloroethyl)amino]-1-methyl-]", "values": [{"measurement": "cell proliferation, combination with VPA", "setting": "[1]; FIG. 4A, 25 μM bendamustine 48 h after 48 h 1 mM VPA, normalized to 1/DMSO treated cells", "value": "killed all cancer cells"}, {"measurement": "effect on cell proliferation after valproic acid pretreatment", "setting": "WSU-NHL cell line; FIG. 1B, 5 μM bendamustine 24 h after 48 h 1 mM valproic acid, normalized to untreated control cells", "value": "Especially significant effects"}, {"measurement": "effect on cell proliferation after valproic acid pretreatment", "setting": "WSU-NHL cell line; [2]", "value": "Especially significant effects"}]}
{"smiles": "N.N.O=C([O-])C1(C(=O)[O-])CCC1.[Pt+2]", "note": "[carboplatin, Platinum, diammine[1,1-cyclobutanedicarboxylato(2-)-KO,KO″ ]-, (SP-4-2)-]", "values": [{"measurement": "cells left alive, combination with VPA", "setting": "[1]; FIG. 4B, 5 μM carboplatin 48 h after 48 h 1 mM VPA, normalized to untreated control cells", "value": "about 10 cells"}, {"measurement": "cells left alive, combination with VPA", "setting": "[1]; FIG. 4B, 25 μM carboplatin 48 h after 48 h 1 mM VPA, normalized to untreated control cells", "value": "about 10 cells"}, {"measurement": "effect on cell proliferation after valproic acid pretreatment", "setting": "WSU-NHL cell line; [2]", "value": "Especially significant effects"}]}
{"smiles": "Nc1ccn([C@@H]2O[C@H](CO)[C@@H](O)C2(F)F)c(=O)n1", "note": "[gemcitabine, Cytidine, 2′-deoxy-2′,2′-difluoro-]", "values": [{"measurement": "cell proliferation, combination with VPA", "setting": "[1]; FIG. 4A, 25 nM gemcitabine 48 h after 48 h 1 mM VPA, normalized to 1/DMSO treated cells", "value": "killed all cancer cells"}, {"measurement": "effect on cell proliferation after valproic acid pretreatment", "setting": "WSU-NHL cell line; FIG. 1B, 5 nM gemcitabine 24 h after 48 h 1 mM valproic acid, normalized to untreated control cells", "value": "Especially significant effects"}, {"measurement": "effect on cell proliferation after valproic acid pretreatment", "setting": "WSU-NHL cell line; FIG. 2B, 5 nM gemcitabine 48 h after 48 h 1 mM valproic acid, normalized to untreated control cells", "value": "Especially significant effects"}]}
{"smiles": "CCCC(CCC)C(=O)O", "note": "[valproic acid]", "values": [{"measurement": "effect of valproic acid pretreatment on cell proliferation (percent growth of treated cells)", "setting": "[1]; FIG. 3A, then 24 h treatment with the respective compounds, normalized to 1% DMSO treated cells", "value": "increased the effect of the 24 h treatment"}, {"measurement": "effect of valproic acid pretreatment on cell proliferation (percent growth of treated cells)", "setting": "[1]; FIG. 3B, then 24 h treatment with the respective compounds, normalized to untreated control cells", "value": "increased the effect of the 24 h treatment"}, {"measurement": "effect of valproic acid pretreatment on cell proliferation (percent growth of treated cells)", "setting": "[1]; FIG. 4A, then 48 h treatment with the respective compounds, normalized to 1/DMSO treated cells", "value": "increased the effect of the 48 h treatment"}, {"measurement": "effect of valproic acid pretreatment on cell proliferation (percent growth of treated cells)", "setting": "[1]; FIG. 4B, then 48 h treatment with the respective compounds, normalized to untreated control cells", "value": "increased the effect of the 48 h treatment"}, {"measurement": "effect of valproic acid pretreatment on cell proliferation (percent growth of treated cells)", "setting": "WSU-NHL cell line; FIG. 1A, then 24 h treatment with bendamustine, gemcitabine or carboplatin, normalized to 1% DMSO treated cells", "value": "increased the effect of the 24 h treatment"}, {"measurement": "effect of valproic acid pretreatment on cell proliferation (percent growth of treated cells)", "setting": "WSU-NHL cell line; FIG. 1B, then 24 h treatment with the respective compounds, normalized to untreated control cells", "value": "increased the effect of the 24 h treatment"}, {"measurement": "effect of valproic acid pretreatment on cell proliferation (percent growth of treated cells)", "setting": "WSU-NHL cell line; FIG. 2A, then 48 h treatment with the respective compounds, normalized to 1/DMSO treated cells", "value": "increased the effect of the 48 h treatment"}, {"measurement": "effect of valproic acid pretreatment on cell proliferation (percent growth of treated cells)", "setting": "WSU-NHL cell line; FIG. 2B, then 48 h treatment with the respective compounds, normalized to untreated control cells", "value": "increased the effect of the 48 h treatment"}]}
